Here are results for nine compounds from ChEMBL document CHEMBL2021858, “The effect of vindoline C-16 substituents on the biomimetic coupling reaction: synthesis and cytotoxicity evaluation of the corresponding vinorelbine analogues” (Bioorg Med Chem Lett, 2012).

Experiment [1] has as its system HeLa. Nature of the experiment: Cytotoxicity against human HeLa cells by MTT assay. Format: functional, cell-based. In general terms: Tetrazolium dyes change colour on reduction, which living cells bring about.
The test system of experiment [2] is A549. The experiment can be described thus: Cytotoxicity against human A549 cells by MTT assay. Format: functional, cell-based.

pIC50: −log10 of the molar value.

For `CCC1=C[C@@H]2CN(C1)Cc1c([nH]c3ccccc13)[C@@](C(=O)OC)(c1cc3c(cc1OC)N(C)[C@H]1[C@@](O)(COC(C)=O)[C@H](OC(C)=O)[C@]4(CC)C=CCN5CC[C@]31[C@@H]54)C2`, the pIC50 (commonly −log10 of the IC50, conventionally taken in molar units) in experiment [1] was 8.30; in experiment [2], 8.15.

`CCOc1cc2c(cc1[C@@]1(C(=O)OC)C[C@@H]3C=C(CC)CN(Cc4c1[nH]c1ccccc41)C3)[C@@]13CCN4CC=C[C@@](CC)([C@@H](OC(C)=O)[C@](O)(COC(C)=O)[C@@H]1N2C)[C@H]43`: the pIC50 in experiment [1] is 7.96; in experiment [2] it was 7.89.

Consider `CCCOc1cc2c(cc1[C@@]1(C(=O)OC)C[C@@H]3C=C(CC)CN(Cc4c1[nH]c1ccccc41)C3)[C@@]13CCN4CC=C[C@@](CC)([C@@H](OC(C)=O)[C@](O)(COC(C)=O)[C@@H]1N2C)[C@H]43`, for which the pIC50 in experiment [1] was 7.35; in experiment [2], 7.29.

Consider `CCCCOc1cc2c(cc1[C@@]1(C(=O)OC)C[C@@H]3C=C(CC)CN(Cc4c1[nH]c1ccccc41)C3)[C@@]13CCN4CC=C[C@@](CC)([C@@H](OC(C)=O)[C@](O)(COC(C)=O)[C@@H]1N2C)[C@H]43`, for which the values for the pIC50 in experiment [1] and in experiment [2] were 7.05 and 7.03, respectively.

Consider `CCCCCCCOc1cc2c(cc1[C@@]1(C(=O)OC)C[C@@H]3C=C(CC)CN(Cc4c1[nH]c1ccccc41)C3)[C@@]13CCN4CC=C[C@@](CC)([C@@H](OC(C)=O)[C@](O)(COC(C)=O)[C@@H]1N2C)[C@H]43`, for which the pIC50 was 6.50 in experiment [1] and 6.48 in experiment [2].

Take `CCC1=C[C@@H]2CN(C1)Cc1c([nH]c3ccccc13)[C@@](C(=O)OC)(c1cc3c(cc1OC(C)C)N(C)[C@H]1[C@@](O)(COC(C)=O)[C@H](OC(C)=O)[C@]4(CC)C=CCN5CC[C@]31[C@@H]54)C2`: the pIC50 in experiment [1] is 6.68; in experiment [2] it was 6.63.

In the case of `CCC1=C[C@@H]2CN(C1)Cc1c([nH]c3ccccc13)[C@@](C(=O)OC)(c1cc3c(cc1OCCOC(C)=O)N(C)[C@H]1[C@@](O)(COC(C)=O)[C@H](OC(C)=O)[C@]4(CC)C=CCN5CC[C@]31[C@@H]54)C2`, the negative-log IC50 (pIC50) in experiment [1] was 7.11; in experiment [2], 7.08.

Take `CCC1=C[C@@H]2CN(C1)Cc1c([nH]c3ccccc13)[C@@](C(=O)OC)(c1cc3c(cc1OC(C)=O)N(C)[C@H]1[C@@](O)(COC(C)=O)[C@H](OC(C)=O)[C@]4(CC)C=CCN5CC[C@]31[C@@H]54)C2`: the negative-log IC50 (pIC50) is 7.31 in experiment [1] and 7.25 in experiment [2].

As to `CCC1=C[C@@H]2CN(C1)Cc1c([nH]c3ccccc13)[C@@](C(=O)OC)(c1cc3c(cc1OC)N(C)[C@H]1[C@@](O)(C(=O)OC)[C@H](OC(C)=O)[C@]4(CC)C=CCN5CC[C@]31[C@@H]54)C2` [VINORELBINE], the pIC50 is 8.05 in experiment [1] and 8.00 in experiment [2].
